The text below walks through data of ChEMBL document CHEMBL5678818, “Discovery of potent SOS1 inhibitors that block RAS activation via disruption of the RAS-SOS1 interaction” (Proc Natl Acad Sci U S A, 2019).

For experiment [1], the target named is T1, Serine/threonine-protein kinase TAO1 (Homo sapiens) (UniProt Q7L7X3).
T1 sequence (whole entry): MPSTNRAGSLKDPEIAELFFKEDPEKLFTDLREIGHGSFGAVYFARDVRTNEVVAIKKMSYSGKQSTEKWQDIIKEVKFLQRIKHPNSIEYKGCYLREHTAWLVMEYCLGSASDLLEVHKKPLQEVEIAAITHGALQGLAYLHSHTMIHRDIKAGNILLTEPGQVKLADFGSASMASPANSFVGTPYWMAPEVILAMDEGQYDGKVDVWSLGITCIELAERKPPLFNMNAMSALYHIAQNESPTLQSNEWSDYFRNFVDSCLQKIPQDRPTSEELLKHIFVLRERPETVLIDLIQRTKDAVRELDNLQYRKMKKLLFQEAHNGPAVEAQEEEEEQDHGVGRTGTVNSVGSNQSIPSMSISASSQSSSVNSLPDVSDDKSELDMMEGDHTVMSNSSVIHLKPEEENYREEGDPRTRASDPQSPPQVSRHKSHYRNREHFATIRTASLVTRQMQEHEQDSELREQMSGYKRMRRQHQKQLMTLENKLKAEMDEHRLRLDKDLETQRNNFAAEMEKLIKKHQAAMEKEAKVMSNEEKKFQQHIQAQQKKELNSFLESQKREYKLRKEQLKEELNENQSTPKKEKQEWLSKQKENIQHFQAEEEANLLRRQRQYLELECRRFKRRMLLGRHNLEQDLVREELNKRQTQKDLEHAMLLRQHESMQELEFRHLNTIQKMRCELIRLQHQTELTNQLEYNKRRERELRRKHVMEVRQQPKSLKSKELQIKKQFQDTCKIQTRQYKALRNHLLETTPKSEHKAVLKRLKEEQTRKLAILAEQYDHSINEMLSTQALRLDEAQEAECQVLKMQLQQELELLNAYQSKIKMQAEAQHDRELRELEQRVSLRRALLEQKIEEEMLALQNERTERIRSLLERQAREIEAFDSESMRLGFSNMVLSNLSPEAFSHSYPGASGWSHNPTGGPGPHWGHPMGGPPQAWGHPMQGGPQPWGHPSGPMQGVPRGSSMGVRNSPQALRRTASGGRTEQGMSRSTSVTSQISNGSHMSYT
The experiment can be described thus: Inhibition of TAOK1 (unknown origin) assessed as residual activity at 100 nM by KINOMEscan analysis relative to control.

Experiment [2] deals with Serine/threonine-protein kinase B-raf (Homo sapiens) (UniProt P15056). Nature of the experiment: Inhibition of BRAF (unknown origin) assessed as residual activity at 100 nM by KINOMEscan analysis relative to control.
Sequence of Serine/threonine-protein kinase B-raf (Homo sapiens) (P15056 whole entry): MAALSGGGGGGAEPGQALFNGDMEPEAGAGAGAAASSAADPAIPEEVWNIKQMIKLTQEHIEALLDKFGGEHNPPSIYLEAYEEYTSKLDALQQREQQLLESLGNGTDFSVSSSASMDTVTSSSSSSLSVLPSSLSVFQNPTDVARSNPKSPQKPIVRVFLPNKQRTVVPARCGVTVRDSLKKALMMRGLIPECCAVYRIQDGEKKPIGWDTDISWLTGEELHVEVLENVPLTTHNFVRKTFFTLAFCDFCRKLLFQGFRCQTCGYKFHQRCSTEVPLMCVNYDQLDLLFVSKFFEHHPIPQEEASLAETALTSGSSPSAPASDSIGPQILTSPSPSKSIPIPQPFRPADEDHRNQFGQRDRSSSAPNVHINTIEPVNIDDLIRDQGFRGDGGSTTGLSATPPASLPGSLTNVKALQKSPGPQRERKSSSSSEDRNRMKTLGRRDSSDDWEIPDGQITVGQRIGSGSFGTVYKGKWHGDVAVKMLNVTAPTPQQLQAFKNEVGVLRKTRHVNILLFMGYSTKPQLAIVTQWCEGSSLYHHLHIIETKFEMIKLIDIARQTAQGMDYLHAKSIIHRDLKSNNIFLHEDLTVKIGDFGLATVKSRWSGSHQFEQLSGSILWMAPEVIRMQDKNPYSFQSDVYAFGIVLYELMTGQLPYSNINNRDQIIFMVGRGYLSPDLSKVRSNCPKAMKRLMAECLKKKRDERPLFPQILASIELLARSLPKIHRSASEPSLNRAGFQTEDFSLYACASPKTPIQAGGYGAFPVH
Experiment [3] concerns the target Serine/threonine-protein kinase MRCK gamma (Homo sapiens) (UniProt Q6DT37). The experiment can be described thus: Inhibition of DMPK2 (unknown origin) assessed as residual activity at 100 nM by KINOMEscan analysis relative to control.
Experiment [4] deals with Fibroblast growth factor receptor 3 (Homo sapiens) (UniProt P22607). Nature of the experiment: Inhibition of FGFR3 (unknown origin) assessed as residual activity at 100 nM by KINOMEscan analysis relative to control.
Sequence of Fibroblast growth factor receptor 3 (Homo sapiens) (P22607 23-806 limits assumed): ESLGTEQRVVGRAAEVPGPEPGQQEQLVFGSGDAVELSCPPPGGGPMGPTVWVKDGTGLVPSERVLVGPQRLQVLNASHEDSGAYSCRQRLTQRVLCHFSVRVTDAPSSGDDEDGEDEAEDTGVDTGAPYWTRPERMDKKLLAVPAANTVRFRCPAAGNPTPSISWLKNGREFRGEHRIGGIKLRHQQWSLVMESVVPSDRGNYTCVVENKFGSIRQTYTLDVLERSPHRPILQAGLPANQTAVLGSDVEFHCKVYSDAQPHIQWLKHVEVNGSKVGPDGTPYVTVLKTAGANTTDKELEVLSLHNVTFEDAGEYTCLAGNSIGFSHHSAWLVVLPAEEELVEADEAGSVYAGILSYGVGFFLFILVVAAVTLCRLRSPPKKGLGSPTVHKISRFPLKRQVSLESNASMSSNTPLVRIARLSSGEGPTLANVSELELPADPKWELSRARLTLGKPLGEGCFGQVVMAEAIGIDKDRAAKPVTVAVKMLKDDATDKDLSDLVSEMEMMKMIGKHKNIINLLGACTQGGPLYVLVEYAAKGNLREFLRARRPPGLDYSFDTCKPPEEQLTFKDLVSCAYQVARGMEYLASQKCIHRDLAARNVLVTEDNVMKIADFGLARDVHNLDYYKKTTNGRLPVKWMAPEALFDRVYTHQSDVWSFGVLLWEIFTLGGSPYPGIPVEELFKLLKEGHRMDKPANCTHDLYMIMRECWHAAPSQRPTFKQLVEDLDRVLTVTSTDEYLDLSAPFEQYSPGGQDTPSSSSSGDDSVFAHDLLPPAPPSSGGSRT
Experiment [5] deals with Dual specificity protein kinase CLK4 (Homo sapiens) (UniProt Q9HAZ1). Nature of the experiment: Inhibition of CLK4 (unknown origin) assessed as residual activity at 100 nM by KINOMEscan analysis relative to control.
Sequence of Dual specificity protein kinase CLK4 (Homo sapiens) (Q9HAZ1 whole entry, looked up): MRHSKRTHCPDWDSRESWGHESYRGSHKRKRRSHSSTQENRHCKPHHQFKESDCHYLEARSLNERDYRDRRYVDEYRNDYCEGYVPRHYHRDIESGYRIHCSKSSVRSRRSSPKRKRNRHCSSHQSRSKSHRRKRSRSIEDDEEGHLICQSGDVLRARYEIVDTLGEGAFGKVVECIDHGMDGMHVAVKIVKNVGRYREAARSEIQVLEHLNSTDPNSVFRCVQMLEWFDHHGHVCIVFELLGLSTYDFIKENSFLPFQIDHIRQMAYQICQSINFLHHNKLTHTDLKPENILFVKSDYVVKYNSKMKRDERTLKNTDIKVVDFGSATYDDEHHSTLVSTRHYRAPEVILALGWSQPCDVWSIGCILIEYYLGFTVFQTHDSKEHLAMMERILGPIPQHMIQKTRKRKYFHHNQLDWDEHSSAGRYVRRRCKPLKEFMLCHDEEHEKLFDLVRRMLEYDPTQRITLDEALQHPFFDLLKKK
Experiment [6] addresses T2, Serine/threonine-protein kinase Nek9 (Homo sapiens) (UniProt Q8TD19).
T2 sequence (whole entry): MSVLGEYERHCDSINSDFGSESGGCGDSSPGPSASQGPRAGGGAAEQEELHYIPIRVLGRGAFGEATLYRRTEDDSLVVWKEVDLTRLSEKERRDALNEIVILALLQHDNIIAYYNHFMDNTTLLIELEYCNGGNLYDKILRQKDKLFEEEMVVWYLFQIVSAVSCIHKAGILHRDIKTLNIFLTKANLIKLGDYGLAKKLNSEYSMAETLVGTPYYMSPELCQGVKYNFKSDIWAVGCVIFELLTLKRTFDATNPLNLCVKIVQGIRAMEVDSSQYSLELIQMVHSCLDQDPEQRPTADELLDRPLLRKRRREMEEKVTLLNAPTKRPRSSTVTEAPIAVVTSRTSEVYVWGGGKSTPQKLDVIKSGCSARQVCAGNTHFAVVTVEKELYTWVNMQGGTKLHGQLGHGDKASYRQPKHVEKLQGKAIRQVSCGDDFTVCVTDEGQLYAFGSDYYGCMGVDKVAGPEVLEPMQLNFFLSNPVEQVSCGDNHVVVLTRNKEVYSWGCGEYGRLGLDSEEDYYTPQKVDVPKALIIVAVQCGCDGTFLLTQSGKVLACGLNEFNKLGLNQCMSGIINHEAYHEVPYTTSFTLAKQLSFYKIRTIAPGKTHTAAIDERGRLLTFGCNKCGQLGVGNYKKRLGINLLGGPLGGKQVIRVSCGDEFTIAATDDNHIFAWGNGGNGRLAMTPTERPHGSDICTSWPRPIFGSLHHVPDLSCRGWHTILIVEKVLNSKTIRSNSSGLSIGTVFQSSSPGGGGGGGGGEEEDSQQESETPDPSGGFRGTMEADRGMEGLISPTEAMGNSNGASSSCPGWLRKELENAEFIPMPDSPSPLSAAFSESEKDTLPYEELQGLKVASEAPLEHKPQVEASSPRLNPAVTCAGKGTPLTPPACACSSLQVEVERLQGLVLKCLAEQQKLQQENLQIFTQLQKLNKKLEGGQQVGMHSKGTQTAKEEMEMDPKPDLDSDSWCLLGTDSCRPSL
Nature of the experiment: Inhibition of NEK9 (unknown origin) assessed as residual activity at 100 nM by KINOMEscan analysis relative to control.

Experiment [7] concerns the target Cyclin-dependent kinase-like 3 (Homo sapiens) (UniProt Q8IVW4). Nature of the experiment: Inhibition of CDKL3 (unknown origin) assessed as residual activity at 100 nM by KINOMEscan analysis relative to control.

Each structure is given as a SMILES string.

Sequence of Cyclin-dependent kinase-like 3 (Homo sapiens) (Q8IVW4 whole entry, looked up): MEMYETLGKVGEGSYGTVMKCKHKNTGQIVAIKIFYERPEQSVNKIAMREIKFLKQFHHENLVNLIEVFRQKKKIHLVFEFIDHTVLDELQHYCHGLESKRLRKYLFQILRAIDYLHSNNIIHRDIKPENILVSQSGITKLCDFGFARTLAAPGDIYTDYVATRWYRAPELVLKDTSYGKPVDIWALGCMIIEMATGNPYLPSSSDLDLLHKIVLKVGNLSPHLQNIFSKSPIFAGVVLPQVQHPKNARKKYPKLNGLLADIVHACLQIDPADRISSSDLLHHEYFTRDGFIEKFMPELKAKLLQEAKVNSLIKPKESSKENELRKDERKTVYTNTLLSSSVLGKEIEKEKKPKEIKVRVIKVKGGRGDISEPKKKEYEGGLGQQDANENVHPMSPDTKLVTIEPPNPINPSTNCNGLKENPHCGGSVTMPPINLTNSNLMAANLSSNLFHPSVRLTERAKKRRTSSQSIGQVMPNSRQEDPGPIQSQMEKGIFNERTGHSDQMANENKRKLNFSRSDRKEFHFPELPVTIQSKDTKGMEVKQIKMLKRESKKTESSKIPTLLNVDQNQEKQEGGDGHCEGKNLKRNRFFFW
Sequence of Serine/threonine-protein kinase MRCK gamma (Homo sapiens) (Q6DT37 whole entry): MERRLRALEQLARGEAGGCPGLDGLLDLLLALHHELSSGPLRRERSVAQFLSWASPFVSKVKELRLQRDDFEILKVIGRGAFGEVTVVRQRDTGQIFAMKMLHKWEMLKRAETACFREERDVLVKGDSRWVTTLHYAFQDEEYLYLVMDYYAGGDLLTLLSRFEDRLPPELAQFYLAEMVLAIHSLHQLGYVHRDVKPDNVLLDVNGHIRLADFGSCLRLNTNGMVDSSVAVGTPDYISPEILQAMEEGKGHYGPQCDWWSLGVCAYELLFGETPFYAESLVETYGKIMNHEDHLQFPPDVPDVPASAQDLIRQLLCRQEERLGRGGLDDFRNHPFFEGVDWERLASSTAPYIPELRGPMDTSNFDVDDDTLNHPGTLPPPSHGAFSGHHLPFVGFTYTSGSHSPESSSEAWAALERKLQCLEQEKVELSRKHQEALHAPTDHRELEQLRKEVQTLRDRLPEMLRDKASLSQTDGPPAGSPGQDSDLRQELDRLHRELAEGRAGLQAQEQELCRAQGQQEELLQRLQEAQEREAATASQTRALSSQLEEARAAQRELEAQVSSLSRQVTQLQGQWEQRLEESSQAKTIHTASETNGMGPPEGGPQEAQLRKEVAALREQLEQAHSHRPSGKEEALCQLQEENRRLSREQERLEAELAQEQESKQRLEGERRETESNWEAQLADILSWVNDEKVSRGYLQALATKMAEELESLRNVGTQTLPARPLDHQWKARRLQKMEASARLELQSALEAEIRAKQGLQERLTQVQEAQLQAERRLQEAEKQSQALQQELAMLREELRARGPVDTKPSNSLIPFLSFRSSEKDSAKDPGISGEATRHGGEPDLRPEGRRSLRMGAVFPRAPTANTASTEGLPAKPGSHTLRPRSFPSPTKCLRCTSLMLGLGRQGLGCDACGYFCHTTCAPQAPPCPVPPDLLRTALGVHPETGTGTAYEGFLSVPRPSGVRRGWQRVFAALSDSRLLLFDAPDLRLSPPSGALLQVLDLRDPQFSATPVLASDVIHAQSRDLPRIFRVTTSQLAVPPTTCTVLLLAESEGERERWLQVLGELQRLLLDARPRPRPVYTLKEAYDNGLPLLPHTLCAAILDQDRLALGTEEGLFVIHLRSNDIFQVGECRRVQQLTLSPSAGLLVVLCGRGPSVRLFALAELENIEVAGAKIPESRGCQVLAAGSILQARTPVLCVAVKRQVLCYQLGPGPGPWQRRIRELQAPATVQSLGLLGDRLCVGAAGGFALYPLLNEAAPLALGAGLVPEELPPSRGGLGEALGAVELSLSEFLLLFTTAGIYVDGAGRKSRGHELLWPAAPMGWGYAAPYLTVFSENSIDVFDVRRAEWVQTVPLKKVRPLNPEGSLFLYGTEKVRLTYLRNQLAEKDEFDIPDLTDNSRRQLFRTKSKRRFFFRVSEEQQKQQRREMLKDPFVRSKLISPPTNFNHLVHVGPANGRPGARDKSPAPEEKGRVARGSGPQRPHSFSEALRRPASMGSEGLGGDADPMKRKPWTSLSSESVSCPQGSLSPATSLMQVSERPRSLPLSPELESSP

On to `COc1cc2ncnc(N[C@H](C)c3cccc4ccccc34)c2cc1OC`, for which the Activity in experiment [1] is 88%; in experiment [2], 88%; in experiment [3], 33%; in experiment [4] it was 72%; in experiment [5] it was 87%; in experiment [6], 100%. The Activity in experiment [7] was determined as 100%.
